Measured values as given in ChEMBL document CHEMBL1201862, “PubChem BioAssay data set” (2004).
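Briefly, cells in 96-well plates were exposed to five compound concentrations for 48 h, and endpoints were estimated by linear interpolation. GI50: concentration for 50% inhibition of growth.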 Calls of active or inactive are those of the source. No stated cut-off is given here; in the data, active = GI50 up to about 1.1 µM and inactive = higher.

What was measured:
Test in all cases: NCI anticancer screen, dose series, 48 h
[1] = system: 786-0
[2] = system: A498
[3] = system: A549
[4] = system: ACHN
[5] = system: BT-549
[6] = system: CAKI-1
[7] = system: CCRF-CEM
[8] = system: COLO 205
[9] = system: DU-145
[10] = system: EKVX
[11] = system: HCC 2998
[12] = system: HCT-116
[13] = system: HCT-15
[14] = system: HOP-62
[15] = system: HOP-92
[16] = system: HT-29
[17] = system: IGROV-1
[18] = system: K562
[19] = system: KM12
[20] = system: LOX IMVI
[21] = system: M14
[22] = system: MCF7
[23] = system: MDA-MB-231
[24] = system: MDA-MB-435
[25] = system: MDA-N
[26] = system: MOLT-4
[27] = system: Malme-3M
[28] = system: NCI-H226
[29] = system: NCI-H23
[30] = system: NCI-H460
[31] = system: NCI-H522
[32] = system: NCI/ADR-RES
[33] = system: OVCAR-3
[34] = system: OVCAR-4
[35] = system: OVCAR-5
[36] = system: OVCAR-8
[37] = system: PC-3
[38] = system: RPMI-8226
[39] = system: RXF 393
[40] = system: SF-268
[41] = system: SF-295
[42] = system: SF-539
[43] = system: SK-MEL-28
[44] = system: SK-MEL-2
[45] = system: SK-MEL-5
[46] = system: SK-OV-3
[47] = system: SN12C
[48] = system: SNB-19
[49] = system: SNB-75
[50] = system: SW-620
[51] = system: T47D
[52] = system: TK-10
[53] = system: U-251
[54] = system: UACC-257
[55] = system: UACC-62
[56] = system: UO-31

Compound: O=c1[nH]cc(NCCCl)c(=O)[nH]1
- GI50 [1]: > 100 µM (inactive)
- GI50 [2]: > 100 µM (inactive)
- GI50 [3]: > 100 µM (inactive)
- GI50 [4]: > 100 µM (inactive)
- GI50 [5]: > 100 µM (inactive)
- GI50 [6]: > 100 µM (inactive)
- GI50 [7]: > 100 µM (inactive)
- GI50 [8]: > 100 µM (inactive)
- GI50 [9]: > 100 µM (inactive)
- GI50 [10]: > 100 µM (inactive)
- GI50 [11]: > 100 µM (inactive)
- GI50 [12]: > 100 µM (inactive)
- GI50 [13]: > 100 µM
- GI50 [14]: > 100 µM (inactive)
- GI50 [15]: > 100 µM (inactive)
- GI50 [16]: > 100 µM (inactive)
- GI50 [17]: > 100 µM (inactive)
- GI50 [18]: > 100 µM (inactive)
- GI50 [19]: > 100 µM (inactive)
- GI50 [20]: > 100 µM (inactive)
- GI50 [21]: > 100 µM (inactive)
- GI50 [22]: > 100 µM (inactive)
- GI50 [23]: > 100 µM (inactive)
- GI50 [24]: > 100 µM (inactive)
- GI50 [25]: > 100 µM (inactive)
- GI50 [26]: > 100 µM (inactive)
- GI50 [27]: > 100 µM (inactive)
- GI50 [28]: > 100 µM (inactive)
- GI50 [29]: > 100 µM (inactive)
- GI50 [30]: > 100 µM (inactive)
- GI50 [31]: > 100 µM (inactive)
- GI50 [32]: > 100 µM (inactive)
- GI50 [33]: > 100 µM (inactive)
- GI50 [34]: > 100 µM (inactive)
- GI50 [35]: > 100 µM (inactive)
- GI50 [36]: > 100 µM (inactive)
- GI50 [37]: > 100 µM (inactive)
- GI50 [38]: > 100 µM (inactive)
- GI50 [39]: > 100 µM (inactive)
- GI50 [40]: > 100 µM (inactive)
- GI50 [41]: > 100 µM (inactive)
- GI50 [42]: > 100 µM (inactive)
- GI50 [43]: > 100 µM (inactive)
- GI50 [44]: > 100 µM (inactive)
- GI50 [45]: > 100 µM (inactive)
- GI50 [46]: > 100 µM (inactive)
- GI50 [47]: > 100 µM (inactive)
- GI50 [48]: > 100 µM (inactive)
- GI50 [49]: > 100 µM (inactive)
- GI50 [50]: > 100 µM (inactive)
- GI50 [51]: > 100 µM (inactive)
- GI50 [52]: > 100 µM (inactive)
- GI50 [53]: > 100 µM (inactive)
- GI50 [54]: > 100 µM (inactive)
- GI50 [55]: > 100 µM (inactive)
- GI50 [56]: > 100 µM (inactive)
